Measurements reported in patent publication US20260265299A1, “SYNTHESIS OF BICYCLE TOXIN CONJUGATES, AND INTERMEDIATES THEREOF” (priority 2023, published 2026).
Starred links: 1 amine or outer side, 2 acyl side, 3 side chain; linkers in the order of their positions; H or OH if unused. Non-standard residues stand in square brackets, D forms with d. Residues, ends and D or L forms follow the SMILES beside them. ξ: configuration not given here. *: point of attachment. Dolaproine = CO[C@@H]([C@@H]1CCCN1)[C@@H](C)C(=O)O; ξDil = CC[C@H](C)C([C@@H](CC(=O)[*:2])OC)N(C)[*:1]; PABC = O=C(OCc1ccc(N[*:1])cc1)[*:2]; Glutaryl = O=C(CCCC(=O)[*:2])[*:1]; X1 = C[C@@H](N*)[C@@H](O)c1ccccc1; Cit = NC(=O)NCCC[C@H](N)C(=O)O; NMeV = CN[C@H](C(=O)O)C(C)C

How the values were obtained:
Format in all cases: physicochemical
[1] = Solubility of gvcMMAE in different solvents (assay in mother liquor); details: for Assay in ML (w/w %): 20-30° C., 0.5 h, free acid state
From the text: 3.3.6. Study the Solubility of gvcMMAE in Different Solvents (Table 10)
Solubility of gvcMMAE (free acid state) in different solvents (THF, DCM, MTBE, n-Heptane, iPrOAc, 1,4-dioxane) were investigated.

[2] = Moisture absorption experiment at 60% RH; details: 3 days
Experimental: 100 mg of gvcMMAE was stood at 60% RH condition to do a moisture absorption experiment. The solid state had no change (The weight changed to 103 mg) after 3 days.

[3] = Stress test of gvcMMAE at different drying temperature (HPLC); details: for HPLC/area % gvcMMAE: dry
Experimental: 3.3.13. Stress Test of gvcMMAE at Different Drying Temperature (Table 22 and 23)
Stress test of gvcMMAE at different drying temperatures was done. According to the result listed below, gvcMMAE was stable at 40° C. for 3 days.

[4] = DVS test (hygroscopicity)
Experimental: (Uptake 3.6% water on sorption curve between 40% RH and 80% RH, at 25° C.).

CC[C@H](C)C([C@@H](CC(=O)N1CCC[C@H]1[C@H](OC)[C@@H](C)C(=O)N[C@H](C)[C@@H](O)c1ccccc1)OC)N(C)C(=O)[C@@H](NC(=O)[C@H](C(C)C)N(C)C(=O)OCc1ccc(NC(=O)[C@H](CCCNC(N)=O)NC(=O)[C@@H](NC(=O)CCCC(=O)O)C(C)C)cc1)C(C)C (stereo partly drawn) [gvcMMAE, Glutaryl-Val-Cit-PAB-MMAE] (Glutaryl-V[Cit][PABC][NMeV]V[ξDil][Dolaproine]-X1)
Assay in ML (w/w %) ([1]; 1,4-dioxane 20 v): 0.22 w/w %
Assay in ML (w/w %) ([1]; DCM 20 v): 0.00 w/w %
Assay in ML (w/w %) ([1]; MTBE 20 v): 0.00 w/w %
Assay in ML (w/w %) ([1]; N-heptane 20 v): 0.00 w/w %
Assay in ML (w/w %) ([1]; THF 20 v): 0.47 w/w %
Solubility in solvents (in words) ([1]; THF, DCM, MTBE, n-Heptane, iPrOAc, 1,4-dioxane): insoluble in most solvents
Assay in ML (w/w %) ([1]; iPrOAc 20 v): 0.00 w/w %
Solid state after moisture absorption ([2]; 100 mg): no change
Weight after moisture absorption ([2]; starting from 100 mg): 103 mg
HPLC/area % gvcMMAE ([3]; 20° C., 3 days): 98.62 area %
HPLC/area % gvcMMAE ([3]; 30° C., 3 days): 98.65 area %
Stability at drying temperature (in words) ([3]; 40° C. for 3 days): stable
HPLC/area % gvcMMAE ([3]; 40° C., 3 days): 98.61 area %
HPLC/area % gvcMMAE ([3]; 50° C., 3 days): 98.52 area %
HPLC/area % gvcMMAE ([3]; before stress test): 98.54 area %
Hygroscopicity (DVS) ([4]; 80% RH at 25° C.): hygroscopic
Water uptake on sorption curve ([4]; between 40% RH and 80% RH, at 25° C.): 3.6%
